This is an account of results in US20240010641A1, “N-Linked Glycosylation Inhibitors and Methods of Using Same” (YALE UNIVERSITY, priority 2020, published 2024).

The test system of this experiment is N-linked glycosylation (OST) in CHO-ER-LucT cells. Put plainly: CHO-ER-LucT luminescence assay for inhibition of N-linked glycosylation. The experiment is classed as cell-based. Conditions: for Emax: 24 h, [compound's fold change-1.0 (DMSO)]/[NGI-1 fold change-1.0 (DMSO)]*100, read-out: Max activity (% NGI-1); for AC50: CHO-ER-LucT cells, 24 hrs exposure, seven-point dose dilution, luminescence. Here is the method: The CHO-ER-LucT cells have been previously described (Contessa et al., 2010, Clinical Cancer Research, 16(12):3205-14) and are used for testing analog IC50 for inhibition of N-linked glycosylation in 96 or 384 well plate format. In these cells induction of luminescence is dependent on inhibition of glycosylation (and OST inhibition), and is determined after 24 hrs of exposure to the analog following the addition of luciferin substrate. The luminescent signal is then quantified using standard plate readers that detect luminescence (e.g., Biotek synergy). Experiments are performed over a seven-point dose dilution to generate dose response data and to identify IC50 values and maximal activity compared to controls. Data is transformed to log 10 values to generate a sigmoidal shaped dose response curve and fitted using nonlinear regression (curve fit) in GraphPad Prism7.
All HL compounds were tested in CHO-ER-LucT cells. IC50 (AC50) was estimated in following method: Concentration X is converted to logarithm (log10) to generate sigmoidal shape curve and dose response curve is generated using Nonlinear regression (curve fit) in Prism. EC50 (AC50) is calculated using log(agonist) vs response-(three parameters)] which uses standard Hill slope (=1).
Max activity: [compound's fold change−1.0 (DMSO)]/[NGI−1 fold change−1.0 (DMSO)]*100(%) (Eq. 1)

SMILES strings stand for the structures.

As to `Cc1ccc(NC(=O)c2cc(S(=O)(=O)N(C)C)cnc2N2CCCC2)cc1`, the Emax amounted to 14.9% and the AC50 was 94500 nM.
For `Cc1cnc(NC(=O)c2cc(S(=O)(=O)N(C)C)cnc2N2CCCC2)s1`, the Emax worked out at 50.4% and the AC50 came out at 70400 nM.
Turning to `Cc1cnc(NC(=O)c2cc(S(=O)(=O)N(C)C)cc(F)c2N2CCCC2)s1`, the Emax amounted to 114% and the AC50 is 36900 nM.
For `CCc1cnc(NC(=O)c2cc(S(=O)(=O)N(C)C)cc(F)c2N2CCCC2)s1`, the Emax came out at 97.3% and the AC50 was determined as 3760 nM.
For the compound `Cc1nc(NC(=O)c2cc(S(=O)(=O)N(C)C)ccc2N(C)C)sc1C`, the Emax was 33.9% and the concentration at half-maximal activity (AC50) worked out at 27900 nM.
For `CCc1cnc(NC(=O)c2cc(S(=O)(=O)N(C)C)ccc2N(C)C)s1` the same measures were 46.1% and 6850 nM.
For `Cc1nc(NC(=O)c2cc(S(=O)(=O)N(C)C)ccc2N(C)C2CC2)sc1C` the same measures were 43.9% and 3440 nM.
For `CCc1cnc(NC(=O)c2cc(S(=O)(=O)N(C)C)ccc2N(C)C2CC2)s1`, the Emax was found to be 86.8% and the AC50 turned out to be 1190 nM.
`CN(c1ccc(S(=O)(=O)N(C)C)cc1C(=O)Nc1nc2c(s1)COCC2)C1CCCC1`: the Emax is 46.2% and the AC50 worked out at 1020 nM.
Take `Cc1cnc(NC(=O)c2cc(S(=O)(=O)N(C)C)cnc2N(C)CC2CC2)s1`: the Emax was 48.3% and the AC50 was 3020 nM.
Consider `CCc1cnc(NC(=O)c2cc(S(=O)(=O)N3CCOCC3)ccc2N(C)CC)s1`, for which the Emax was determined as 130% and the AC50 was found to be 620 nM.
`CCc1cnc(NC(=O)c2cc(S(=O)(=O)N3CCOCC3)ccc2N(C)C2CC2)s1`: the Emax was found to be 129% and the AC50 amounted to 2500 nM.
Take `CCc1cnc(NC(=O)c2cc(S(=O)(=O)CC3CC3)ccc2N(C)C2CCCC2)s1`: the Emax is 89.9% and the AC50 was 1530 nM.
Consider `Cc1nc(NC(=O)c2cc(S(=O)(=O)CC3CC3)ccc2N(C)C2CCCC2)sc1C`, for which the Emax came to 41% and the half-maximal activity concentration (AC50) worked out at 2430 nM.
For the compound `Cc1nc(NC(=O)c2cc(S(=O)(=O)N3CCOCC3)ccc2N(C)C2CC2)sc1C`, the Emax came to 36.7% and the AC50 amounted to 2530 nM.
Take `C=CCN(C)c1ccc(S(=O)(=O)N(C)C)cc1C(=O)Nc1ncc(CC)s1`: the Emax is 108% and the AC50 came out at 1100 nM.
For the compound `CCc1cnc(NC(=O)c2cc(S(=O)(=O)CC3CC3)ccc2N(C)CC2CC2)s1`, the Emax came to 88.3% and the concentration at half-maximal activity (AC50) was found to be 2590 nM.
Take `Cc1nc(NC(=O)c2cc(S(=O)(=O)N3CCN(C)CC3)ccc2N(C)CC2CC2)sc1C`: the Emax was determined as 76.9% and the AC50 was 2200 nM.
In the case of `CN(CC1CC1)c1ccc(S(=O)(=O)N2CCOCC2)cc1C(=O)Nc1ncc(Cc2ccccc2)s1`, the Emax was found to be 116% and the AC50 turned out to be 13000 nM.
With `CCc1cnc(NC(=O)c2cc(S(=O)(=O)N(C)C)ccc2N(CC)CC)s1` [Comparator, reference compound], the Emax worked out at 46.8% and the AC50 was 3360 nM.
Turning to `Cc1nc(NC(=O)c2cc(S(=O)(=O)N(C)C)ccc2N(C)C2CCCC2)sc1C` [Example 1, 2-(cyclopentyl(methyl)amino)-5-(N,N-dimethylsulfamoyl)-N-(4,5-dimethylthiazol-2-yl)benzamide], the Emax turned out to be 81% and the AC50 worked out at 376 nM.
Turning to `CCc1cnc(NC(=O)c2cc(S(=O)(=O)N(C)C)ccc2N(C)C2CCCC2)s1` [Example 2, 2-(cyclopentyl(methyl)amino)-5-(N,N-dimethylsulfamoyl)-N-(5-ethylthiazol-2-yl)benzamide], the Emax stood at 129% and the AC50 is 120 nM.
`CCc1cnc(NC(=O)c2cc(S(=O)(=O)N3CCOCC3)ccc2N(C)C(C)C)s1` [Example 5, N-(5-ethylthiazol-2-yl)-2-(isopropyl(methyl)amino)-5-(morpholinosulfonyl)benzamide]: the Emax was 162% and the AC50 is 270 nM.
On to `CCc1cnc(NC(=O)c2cc(S(=O)(=O)N3CCOCC3)ccc2N(C)C2CCCCC2)s1` [Example 6, 2-(cyclohexyl(methyl)amino)-N-(5-ethylthiazol-2-yl)-5-(morpholinosulfonyl)benzamide], for which the Emax amounted to 148% and the AC50 was found to be 215 nM.
Regarding `CCc1cnc(NC(=O)c2cc(S(=O)(=O)N3CCOCC3)ccc2N(C)C2CCC2)s1` [Example 7, 2-(cyclobutyl(methyl)amino)-N-(5-ethylthiazol-2-yl)-5-(morpholinosulfonyl)benzamide], the Emax worked out at 138% and the AC50 worked out at 243 nM.
Taken in the same sequence, the figures for `C=CCN(C)c1ccc(S(=O)(=O)N2CCOCC2)cc1C(=O)Nc1ncc(CC)s1` [Example 8, 2-(allyl(methyl)amino)-N-(5-ethylthiazol-2-yl)-5-(morpholinosulfonyl)benzamide] were 102% and 446 nM.
As for `Cc1nc(NC(=O)c2cc(S(=O)(=O)N3CCOCC3)ccc2N(C)C2CCCC2)sc1C` [Example 9, 2-(cyclopentyl(methyl)amino)-N-(4,5-dimethylthiazol-2-yl)-5-(morpholinosulfonyl)benzamide], the Emax was 83.5% and the AC50 came out at 165 nM.
Consider `Cc1nc(NC(=O)c2cc(S(=O)(=O)N3CCOCC3)ccc2N(C)CC2CC2)sc1C` [Example 10, 2-((cyclopropylmethyl)(methyl)amino)-N-(4,5-dimethylthiazol-2-yl)-5-(morpholinosulfonyl)benzamide], for which the Emax amounted to 88.7% and the AC50 is 128 nM.
As for `CCc1cnc(NC(=O)c2cc(S(=O)(=O)N(C)C)ccc2N(C)C2CCCCC2)s1` [Example 11, 2-(cyclohexyl(methyl)amino)-5-(N,N-dimethylsulfamoyl)-N-(5-ethylthiazol-2-yl)benzamide], the Emax stood at 52.9% and the AC50 came to 248 nM.
For `CCc1cnc(NC(=O)c2cc(S(=O)(=O)N(C)C)ccc2N(C)CC2CC2)s1` [Example 12, 2-((cyclopropylmethyl)(methyl)amino)-5-(N,N-dimethylsulfamoyl)-N-(5-ethylthiazol-2-yl)benzamide] the same measures were 133% and 77 nM.
Turning to `CCc1cnc(NC(=O)c2cc(S(=O)(=O)N(C)C)ccc2N(C)CC)s1` [Example 13, 5-(N,N-dimethylsulfamoyl)-2-(ethyl(methyl)amino)-N-(5-ethylthiazol-2-yl)benzamide], the Emax worked out at 114% and the AC50 was 294 nM.
With `CCc1cnc(NC(=O)c2cc(S(=O)(=O)N(C)C)ccc2N(C)C(C)C)s1` [Example 14, 5-(N,N-dimethylsulfamoyl)-N-(5-ethylthiazol-2-yl)-2-(isopropyl(methyl)amino)benzamide], the Emax was 128% and the AC50 amounted to 372 nM.
Turning to `CCc1cnc(NC(=O)c2cc(S(=O)(=O)N(C)C)ccc2N(C)C2CCC2)s1` [Example 15, 2-(cyclobutyl(methyl)amino)-5-(N,N-dimethylsulfamoyl)-N-(5-ethylthiazol-2-yl)benzamide], the Emax is 141% and the AC50 worked out at 252 nM.
`CCc1cnc(NC(=O)c2cc(S(=O)(=O)N(C)C)ccc2N(C)CC2CCC2)s1` [Example 16, 2-((cyclobutylmethyl)(methyl)amino)-5-(N,N-dimethylsulfamoyl)-N-(5-ethylthiazol-2-yl)benzamide]: the Emax stood at 82.2% and the AC50 was 744 nM.
In the case of `Cc1cnc(NC(=O)c2cc(S(=O)(=O)N(C)C)ccc2N(C)C2CCCC2)s1` [Example 17, 2-(cyclopentyl(methyl)amino)-5-(N,N-dimethylsulfamoyl)-N-(5-methylthiazol-2-yl)benzamide], the Emax came to 102% and the AC50 amounted to 361 nM.
As to `CCc1cnc(NC(=O)c2cc(S(=O)(=O)N(C)Cc3ccccc3)ccc2N(C)CC2CC2)s1` [Example 18, 5-(N-benzyl-N-methylsulfamoyl)-2-((cyclopropylmethyl)(methyl)amino)-N-(5-ethylthiazol-2-yl)benzamide], the Emax is 71.2% and the AC50 is 266 nM.
On to `Cc1sc(NC(=O)c2cc(S(=O)(=O)N3CCOCC3)ccc2N(C)CC2CC2)nc1-c1ccccc1` [Example 19, 2-((cyclopropylmethyl)(methyl)amino)-N-(5-methyl-4-phenylthiazol-2-yl)-5-(morpholinosulfonyl)benzamide], for which the Emax came out at 66.2% and the AC50 was 563 nM.
`CCc1csc(NC(=O)c2cc(S(=O)(=O)N3CCOCC3)ccc2N(C)CC2CC2)n1` [Example 20, 2-((cyclopropylmethyl)(methyl)amino)-N-(4-ethylthiazol-2-yl)-5-(morpholinosulfonyl)benzamide]: the Emax stood at 94.2% and the AC50 stood at 548 nM.
Taken in the same sequence, the figures for `Cc1nc(NC(=O)c2cc(S(=O)(=O)N(C)C)cnc2N(C)C2CCCC2)sc1C` [Example 21, 2-(cyclopentyl(methyl)amino)-5-(N,N-dimethylsulfamoyl)-N-(4,5-dimethylthiazol-2-yl)nicotinamide] were 101% and 970 nM.
